PubChem BioAssay (NCI)
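The compound was tested at five concentrations on cells cultured in 96-well plates, with a 48-hour exposure period. TGI marks complete inhibition of growth.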

Columns and labels:
Test in all cases: DTP human tumour cell line panel, 48 h
[1] = system: U251 CNS
[2] = system: CCRF-CEM leukemia
[3] = system: UACC-62 melanoma
[4] = system: T-47D breast
[5] = system: NCI-H522 lung
[6] = system: TK-10 renal
[7] = system: MOLT-4 leukemia
[8] = system: HOP-92 NSCLC
[9] = system: SW-620 colon
[10] = system: RPMI-8226 leukemia
[11] = system: NCI-H23 lung
[12] = system: SK-OV-3 ovarian
[13] = system: MDA-N
[14] = system: SK-MEL-2 melanoma
[15] = system: NCI/ADR-RES ovarian
[16] = system: UO-31 renal
[17] = system: SN12C renal
[18] = system: NCI-H460 lung
[19] = system: PC-3 prostate
[20] = system: K-562 leukemia
[21] = system: M14 melanoma
[22] = system: MDA-MB-231 breast
[23] = system: A549 NSCLC
[24] = system: HT29 colon
[25] = system: OVCAR-4 ovarian
[26] = system: SNB-19 CNS
[27] = system: KM12 colon
[28] = system: MCF7 breast
[29] = system: BT-549 breast
[30] = system: SNB-75 CNS
[31] = system: IGROV1 ovarian
[32] = system: HCT-15 colon
[33] = system: COLO 205 colon
[34] = system: SK-MEL-5 melanoma
[35] = system: SK-MEL-28 melanoma
[36] = system: SF-295 CNS
[37] = system: RXF 393 renal
[38] = system: MDA-MB-435
[39] = system: HOP-62 NSCLC
[40] = system: A498 renal
[41] = system: ACHN renal
[42] = system: SF-539 CNS
[43] = system: EKVX NSCLC
[44] = system: HCC-2998 colon
[45] = system: DU-145 prostate
[46] = system: HS 578T breast
[47] = system: OVCAR-3 ovarian
[48] = system: CAKI-1 renal
[49] = system: HCT-116 colon
[50] = system: HL-60(TB) leukemia
[51] = system: MALME-3M melanoma
[52] = system: OVCAR-5 ovarian
[53] = system: UACC-257 melanoma
[54] = system: 786-0 renal
[55] = system: OVCAR-8 ovarian
[56] = system: LOX IMVI melanoma
[57] = system: NCI-H226 lung
[58] = system: SF-268 CNS
[59] = system: SR leukemia

Compound: CC(=O)Nc1c2sscc-2n(C)c1=O
- TGI [1]: 2.54 µM
- TGI [2]: 1.51 µM
- TGI [3]: 5.36 µM
- TGI [4]: 3.19 µM
- TGI [5]: 2.65 µM
- TGI [6]: 4.83 µM
- TGI [7]: 0.275 µM
- TGI [8]: 3.7 µM
- TGI [9]: 1.83 µM
- TGI [10]: 4.48 µM
- TGI [11]: 2.28 µM
- TGI [12]: 2.84 µM
- TGI [13]: 3.13 µM
- TGI [14]: 3.36 µM
- TGI [15]: 4.22 µM
- TGI [16]: 3.58 µM
- TGI [17]: 3.37 µM
- TGI [18]: 1.32 µM
- TGI [19]: 2.97 µM
- TGI [20]: 5.71 µM
- TGI [21]: 0.865 µM
- TGI [22]: 3.54 µM
- TGI [23]: 3.56 µM
- TGI [24]: 0.692 µM
- TGI [25]: 2.96 µM
- TGI [26]: 3.45 µM
- TGI [27]: 2.6 µM
- TGI [28]: 1.69 µM
- TGI [29]: 2.76 µM
- TGI [30]: 3.05 µM
- TGI [31]: 4.65 µM
- TGI [32]: 2.66 µM
- TGI [33]: 1.84 µM
- TGI [34]: 3.38 µM
- TGI [35]: 2.69 µM
- TGI [36]: 2.65 µM
- TGI [37]: 3.18 µM
- TGI [38]: 2.51 µM
- TGI [39]: 3.15 µM
- TGI [40]: 3.27 µM
- TGI [41]: 12.1 µM
- TGI [42]: 3.52 µM
- TGI [43]: 3.68 µM
- TGI [44]: 1.89 µM
- TGI [45]: 5.54 µM
- TGI [46]: 10.3 µM
- TGI [47]: 3.3 µM
- TGI [48]: 3.36 µM
- TGI [49]: 1.96 µM
- TGI [50]: 5.9 µM
- TGI [51]: 2.19 µM
- TGI [52]: 3 µM
- TGI [53]: 2.97 µM
- TGI [54]: 3.24 µM
- TGI [55]: 1.36 µM
- TGI [56]: 3.39 µM
- TGI [57]: 3.4 µM
- TGI [58]: 3.09 µM

Compound: COC(=O)CN=C1NC(=S)N(Cc2ccc(OC)cc2)C12CCCC2
- TGI [1]: > 100 µM
- TGI [2]: > 100 µM
- TGI [3]: > 100 µM
- TGI [4]: > 100 µM
- TGI [5]: > 100 µM
- TGI [7]: > 100 µM
- TGI [8]: > 100 µM
- TGI [9]: > 100 µM
- TGI [10]: > 100 µM
- TGI [11]: > 100 µM
- TGI [12]: > 100 µM
- TGI [13]: > 100 µM
- TGI [14]: > 100 µM
- TGI [15]: > 100 µM
- TGI [16]: > 100 µM
- TGI [17]: > 100 µM
- TGI [18]: > 100 µM
- TGI [19]: > 100 µM
- TGI [20]: > 100 µM
- TGI [21]: > 100 µM
- TGI [22]: > 100 µM
- TGI [23]: > 100 µM
- TGI [24]: > 100 µM
- TGI [25]: > 100 µM
- TGI [26]: > 100 µM
- TGI [27]: > 100 µM
- TGI [28]: > 100 µM
- TGI [29]: > 100 µM
- TGI [30]: > 100 µM
- TGI [32]: > 100 µM
- TGI [33]: > 100 µM
- TGI [35]: > 100 µM
- TGI [36]: > 100 µM
- TGI [37]: > 100 µM
- TGI [38]: > 100 µM
- TGI [39]: > 100 µM
- TGI [40]: > 100 µM
- TGI [41]: > 100 µM
- TGI [42]: > 100 µM
- TGI [43]: > 100 µM
- TGI [44]: > 100 µM
- TGI [45]: > 100 µM
- TGI [47]: > 100 µM
- TGI [48]: > 100 µM
- TGI [49]: > 100 µM
- TGI [51]: > 100 µM
- TGI [52]: > 100 µM
- TGI [53]: > 100 µM
- TGI [54]: > 100 µM
- TGI [55]: > 100 µM
- TGI [57]: > 100 µM
- TGI [59]: > 100 µM
- TGI [58]: > 100 µM

Compound: O=C1NC(=S)N/C1=C\c1ccc(Cl)cc1
- TGI [1]: > 100 µM
- TGI [2]: > 100 µM
- TGI [3]: > 100 µM
- TGI [4]: > 100 µM
- TGI [5]: > 100 µM
- TGI [6]: > 100 µM
- TGI [7]: > 100 µM
- TGI [9]: > 100 µM
- TGI [10]: > 100 µM
- TGI [11]: > 100 µM
- TGI [12]: > 100 µM
- TGI [13]: > 100 µM
- TGI [14]: > 100 µM
- TGI [15]: > 100 µM
- TGI [16]: > 100 µM
- TGI [17]: > 100 µM
- TGI [19]: > 100 µM
- TGI [21]: > 100 µM
- TGI [22]: > 100 µM
- TGI [23]: > 100 µM
- TGI [24]: > 100 µM
- TGI [25]: > 100 µM
- TGI [26]: > 100 µM
- TGI [27]: > 100 µM
- TGI [28]: > 100 µM
- TGI [29]: > 100 µM
- TGI [30]: > 100 µM
- TGI [31]: > 100 µM
- TGI [32]: > 100 µM
- TGI [33]: > 100 µM
- TGI [34]: > 100 µM
- TGI [35]: > 100 µM
- TGI [36]: > 100 µM
- TGI [37]: > 100 µM
- TGI [38]: > 100 µM
- TGI [39]: > 100 µM
- TGI [42]: > 100 µM
- TGI [43]: > 100 µM
- TGI [44]: > 100 µM
- TGI [45]: > 100 µM
- TGI [46]: > 100 µM
- TGI [47]: > 100 µM
- TGI [48]: > 100 µM
- TGI [49]: > 100 µM
- TGI [51]: > 100 µM
- TGI [52]: > 100 µM
- TGI [54]: > 100 µM
- TGI [55]: > 100 µM
- TGI [56]: > 100 µM
- TGI [57]: > 100 µM
- TGI [58]: > 100 µM
